# Data as given in ChEMBL document CHEMBL4261482, “Development of small molecular compounds targeting cancer stem cells” (Medchemcomm, 2017).
# Experiments:
# MV4-11 = test: Cytotoxicity against human MV4-11 cells assessed as decrease in cell viability after 48 hrs by MTT assay; assay type: functional, cell-based; conditions: MV4-11, 48 h
# THP-1 = test: Cytotoxicity against human THP1 cells assessed as decrease in cell viability after 48 hrs by MTT assay; assay type: functional, cell-based; conditions: THP-1, 48 h
# KG-1 = test: Cytotoxicity against human KG1 cells assessed as decrease in cell viability after 48 hrs by MTT assay; assay type: functional, cell-based; conditions: KG-1, 48 h
# [1] = Cytotoxicity against human KOCL48 cells assessed as decrease in cell viability after 48 hrs by MTT assay; assay type: functional, cell-based
# MOLM-13 = test: Cytotoxicity against human MOLM13 cells assessed as decrease in cell viability after 48 hrs by MTT assay; assay type: functional, cell-based; conditions: MOLM-13, 48 h
# KG-1a = test: Cytotoxicity against human KG1a cells assessed as decrease in cell viability after 48 hrs by MTT assay; assay type: functional, cell-based
# K562 = test: Cytotoxicity against human K562 cells assessed as decrease in cell viability after 48 hrs by MTT assay; assay type: functional, cell-based; conditions: K562, 48 h
# ML-2 = test: Cytotoxicity against human ML2 cells assessed as decrease in cell viability after 48 hrs by MTT assay; assay type: functional, cell-based; conditions: ML-2, 48 h
# U-937 = test: Cytotoxicity against human U937 cells assessed as decrease in cell viability after 48 hrs by MTT assay; assay type: functional, cell-based; conditions: U-937, 48 h
# CAKI-1 = test: Cytotoxicity against human Caki1 cells assessed as decrease in cell viability after 72 hrs by MTT assay; assay type: functional, cell-based; conditions: CAKI-1, 72 h
# 769-P = test: Cytotoxicity against human 769-P cells assessed as decrease in cell viability after 72 hrs by MTT assay; assay type: functional, cell-based
# 786-0 = test: Cytotoxicity against human 786-O cells assessed as decrease in cell viability after 72 hrs by MTT assay; assay type: functional, cell-based; conditions: 786-0, 72 h
# [2] = Cytotoxicity against human VMRC-RCW cells assessed as decrease in cell viability after 72 hrs by MTT assay; assay type: functional, cell-based
# CAKI-2 = test: Cytotoxicity against human Caki2 cells assessed as decrease in cell viability after 72 hrs by MTT assay; assay type: functional, cell-based; conditions: CAKI-2, 72 h
# Lu-99 cell line [3] = test: Cytotoxicity against human LU99 cells assessed as decrease in cell viability after 72 hrs by CCK8 assay; assay type: functional, cell-based; conditions: Lu-99, 72 h
# Daudi = test: Cytotoxicity against human Daudi cells assessed as decrease in cell viability after 72 hrs by CCK8 assay; assay type: functional, cell-based
# MKN-1 = test: Cytotoxicity against human MKN1 cells assessed as decrease in cell viability after 72 hrs by CCK8 assay; assay type: functional, cell-based; conditions: MKN-1, 72 h
# HCT-116 = test: Cytotoxicity against human HCT116 cells assessed as decrease in cell viability after 72 hrs by CCK8 assay; assay type: functional, cell-based; conditions: HCT-116, 72 h
# MIA PaCa-2 = test: Cytotoxicity against human MIAPaCa2 cells assessed as decrease in cell viability after 72 hrs by CCK8 assay; assay type: functional, cell-based; conditions: MIA PaCa-2, 72 h
# UMUC3 = test: Cytotoxicity against human UM-UC-3 cells assessed as decrease in cell viability after 72 hrs by CCK8 assay; assay type: functional, cell-based; conditions: UMUC3, 72 h
# MKN-45 = test: Cytotoxicity against human MKN45 cells assessed as decrease in cell viability after 72 hrs by CCK8 assay; assay type: functional, cell-based; conditions: MKN-45, 72 h
# DU-4475 = test: Cytotoxicity against human DU4475 cells assessed as decrease in cell viability after 72 hrs by CCK8 assay; assay type: functional, cell-based; conditions: DU-4475, 72 h
# A549 [4] = test: Cytotoxicity against human A549 cells assessed as decrease in cell viability after 72 hrs by CCK8 assay; assay type: functional, cell-based; conditions: A549, 72 h
# CWR22R = test: Cytotoxicity against human 22Rv1 cells assessed as decrease in cell viability after 72 hrs by CCK8 assay; assay type: functional, cell-based; conditions: 22Rv1, 72 h
# T47D = test: Cytotoxicity against human T47D cells assessed as decrease in cell viability after 72 hrs by CCK8 assay; assay type: functional, cell-based
# HepG2 = test: Cytotoxicity against human HepG2 cells assessed as decrease in cell viability after 72 hrs by CCK8 assay; assay type: functional, cell-based; conditions: HepG2, 72 h
# MDA-MB-231 = test: Cytotoxicity against human MDA-MB-231 cells assessed as decrease in cell viability after 72 hrs by CCK8 assay; assay type: functional, cell-based; conditions: MDA-MB-231, 72 h
# A549 [5] = test: Antitumor activity against human A549 cells xenografted in BALB/cSLC-nu/nu mouse assessed as tumor growth inhibition at 5 mg/kg, iv qd administered for 14 days measured on day 15 relative to control; assay type: functional; conditions: read-out: TGI
# Lu-99 cell line [6] = test: Antitumor activity against human LU99 cells xenografted in BALB/cSLC-nu/nu mouse assessed as tumor growth inhibition at 5 mg/kg, iv qd administered for 14 days measured on day 15 relative to control; assay type: functional; conditions: Lu-99, iv, read-out: TGI
# Caov-3 cell line = test: Cytotoxicity against human Caov3 cells assessed as decrease in cell viability after 72 hrs by CCK8 assay; assay type: functional, cell-based; conditions: Caov-3, 72 h
# PA-1 = test: Cytotoxicity against human PA1 cells assessed as decrease in cell viability after 72 hrs by CCK8 assay; assay type: functional, cell-based; conditions: PA-1, 72 h
# [7] = Cytotoxicity against human ES2 cells assessed as decrease in cell viability after 72 hrs by CCK8 assay; assay type: functional, cell-based; conditions: ES-2, 72 h
# SK-OV-3 = test: Cytotoxicity against human SKOV3 cells assessed as decrease in cell viability after 72 hrs by CCK8 assay; assay type: functional, cell-based; conditions: SK-OV-3, 72 h
# OV-90 = test: Cytotoxicity against human OV90 cells assessed as decrease in cell viability after 72 hrs by CCK8 assay; assay type: functional, cell-based; conditions: OV-90, 72 h
# SW626 = test: Cytotoxicity against human SW626 cells assessed as decrease in cell viability after 72 hrs by CCK8 assay; assay type: functional, cell-based; conditions: SW626, 72 h
# OVCAR-3 = test: Cytotoxicity against human OVCAR3 cells assessed as decrease in cell viability after 72 hrs by CCK8 assay; assay type: functional, cell-based; conditions: OVCAR-3, 72 h
# A2780 = test: Cytotoxicity against human A2780 cells assessed as decrease in cell viability after 72 hrs by CCK8 assay; assay type: functional, cell-based; conditions: A2780, 72 h
# [8] = Cytotoxicity against human OVSAHO cells assessed as decrease in cell viability after 72 hrs by CCK8 assay; assay type: functional, cell-based
# RMG-I = test: Cytotoxicity against human RMG-1 cells assessed as decrease in cell viability after 72 hrs by CCK8 assay; assay type: functional, cell-based
# [9] = Cytotoxicity against human OVTOKO cells assessed as decrease in cell viability after 72 hrs by CCK8 assay; assay type: functional, cell-based
smiles,measurement,setting,value
Cc1cc(O)c(-c2ccc([C@@H](C)CN)cc2)c2c1[nH]c(=O)c1sccc12,IC50,MV4-11,10.7 nM
same,IC50,THP-1,23.5 nM
same,IC50,KG-1,48.7 nM
same,IC50,[1],7.1 nM
same,IC50,MOLM-13,9 nM
same,IC50,KG-1a,26.2 nM
same,IC50,K562,36.8 nM
same,IC50,ML-2,17.9 nM
same,IC50,U-937,19.2 nM
same,IC50,CAKI-1,27.8 nM
same,IC50,769-P,20.7 nM
same,IC50,786-0,44.1 nM
same,IC50,[2],19.9 nM
same,IC50,CAKI-2,20.1 nM
same,IC50,Lu-99 cell line [3],1.5 nM
same,IC50,Daudi,3.7 nM
same,IC50,MKN-1,4.6 nM
same,IC50,HCT-116,4.8 nM
same,IC50,MIA PaCa-2,5.2 nM
same,IC50,UMUC3,5.7 nM
same,IC50,MKN-45,6.1 nM
same,IC50,DU-4475,6.4 nM
same,IC50,A549 [4],6.5 nM
same,IC50,CWR22R,8 nM
same,IC50,T47D,8.4 nM
same,IC50,HepG2,8.5 nM
same,IC50,MDA-MB-231,14 nM
same,inhibition in vivo at 5 mg/kg,A549 [5],65%
same,inhibition in vivo at 5 mg/kg,Lu-99 cell line [6],104%
same,IC50,Caov-3 cell line,5.1 nM
same,IC50,PA-1,5 nM
same,IC50,[7],5.6 nM
same,IC50,SK-OV-3,6.3 nM
same,IC50,OV-90,8.8 nM
same,IC50,SW626,9.4 nM
same,IC50,OVCAR-3,12 nM
same,IC50,A2780,10 nM
same,IC50,[8],13 nM
same,IC50,RMG-I,15 nM
same,IC50,[9],46 nM
